Converted amounts (≈) assume the structure as drawn. Where two headings read alike, the source gives them in different places.
How the values were obtained:
Format in all cases: cell-based
[1] = test system: S. aureus ATCC 29213; experiment: MIC test according to CLSI M7-A9, S. aureus ATCC 29213; conditions: Staphylococcus aureus, ATCC29213, CLSI M7-A9, CAMHB
Description: (§1) MIC Test (S. aureus ATCC 29213, S. aureus ATCC 43300 and S. aureus Newman)
(§2) Susceptibility testing of S. aureus ATCC 29213, ATCC 43300 and Newman was performed according to Clinical Laboratory Standard Institute (CLSI) guidelines M7-A9. Test articles were stored at room temperature prior to use, then dissolved in filtered sterile DMSO. Stock DMSO solutions were diluted further in cation-adjusted Mueller Hinton broth (CAMHB) to provide appropriate test concentrations. Cultures of S. aureus (ATCC 29213, ATCC 43300 or Newman) were added in accordance with CLSI guidelines and plates incubated at 37° C. in air for 24 h. Endpoints were determined visually (and by spectrophotometer at 600 nm) and the minimum inhibitory concentration (MIC) defined as the lowest concentration of test articles resulting in complete inhibition of visible bacterial growth. Results are detailed in Table 2 (S. aureus ATCC 29213 and ATCC 43300) and Table 3 (S. aureus ATCC 29213, ATCC 43300 and Newman).

[2] = test system: S. aureus Newman; experiment: MIC test according to CLSI M7-A9, S. aureus Newman; conditions: Staphylococcus aureus, CLSI M7-A9, CAMHB, 24 h (Table 3), read-out: S. aureus ATCC Newman MIC
Description: as §1, §2

[3] = test system: S. aureus ATCC 43300; experiment: MIC test according to CLSI M7-A9, S. aureus ATCC 43300; conditions: Staphylococcus aureus, ATCC43300; CLSI M7-A9, CAMHB, 24 h (Table 2); read-out: S. aureus ATCC 43300 MIC at 24 h
Description: as §1, §2

[4] = 24 h (Table 3), read-out: S. aureus ATCC 29213 MIC
[5] = 24 h (Table 2), read-out: S. aureus ATCC 29213 MIC at 24 h

Compound | MIC [1, 4] [mg/L] | MIC [2] [mg/L] | MIC [1, 5] [mg/L] | MIC [3] [mg/L]
Cc1ccc(Cc2c(=O)[nH]n3c(N4CCN(C)CC4)nc(-c4ccc(C(C)(C)C)cc4)nc23)cn1 [Example 117, 2-(4-tert-butylphenyl)-4-(4-methylpiperazin-1-yl)-8-[(6-methylpyridin-3-yl)methyl]-6H,7H-pyrazolo[1,5-a][1,3,5]triazin-7-one] | 128 (≈ 271 µM) | 128 (≈ 271 µM) |  | 
CC(C)(C)c1ccc(-c2nc(NCC(F)(F)CNC3Cc4ccccc4C3)n3[nH]c(=O)cc3n2)cc1 [Example 89, 2-(4-tert-Butylphenyl)-4-({3-[(2,3-dihydro-1H-inden-2-yl)amino]-2,2-difluoropropyl}amino)-6H,7H-pyrazolo[1,5-a][1,3,5]triazin-7-one] | 8 (≈ 16.2 µM) | 8 (≈ 16.2 µM) |  | 
CC(C)(C)c1ccc(-c2nc(NCC3CN(Cc4ccccc4)CCO3)n3[nH]c(=O)cc3n2)cc1 (stereo not drawn) [Example 79, 4-{[(4-benzylmorpholin-2-yl)methyl]amino}-2-(4-tert-butylphenyl)-6H,7H-pyrazolo[1,5-a][1,3,5]triazin-7-one] | 32 (≈ 67.7 µM) | 16 (≈ 33.9 µM) |  | 
CC(C)(C)c1ccc(-c2nc(NCCCN3CCc4ccccc4C3)n3[nH]c(=O)cc3n2)cc1 [Example 91, 2-(4-tert-butylphenyl)-4-{[3-(1,2,3,4-tetrahydroisoquinolin-2-yl)propyl]amino}-6H,7H-pyrazolo[1,5-a][1,3,5]triazin-7-one] | 32 (≈ 70.1 µM) | 16 (≈ 35 µM) |  | 
Cc1ccc(Cc2c(=O)[nH]n3c(NCCCN4CCc5ccccc5C4)nc(-c4ccc(C(C)(C)C)cc4)nc23)cn1 [Example 115, 2-(4-tert-butylphenyl)-8-[(6-methylpyridin-3-yl)methyl]-4-[3-(1,2,3,4-tetrahydroisoquinolin-2-yl)propyl]amino-6H,7H-pyrazolo[1,5-a][1,3,5]triazin-7-one] | 32 (≈ 57 µM) | 8 (≈ 14.2 µM) |  | 
CN(C)CCCNc1nc(C23CC4CC(CC(C4)C2)C3)nc2c(Cc3ccccc3)c(=O)[nH]n12 [Example 123, 2-(adamantan-1-yl)-8-benzyl-4-{[3-(dimethylamino)propyl]amino}-6H,7H-pyrazolo[1,5-a][1,3,5]triazin-7-one] | 4 (≈ 8.68 µM) | 4 (≈ 8.68 µM) |  | 
CCCCNc1nc(-c2ccc(C(C)(C)C)cc2)nc2c(Cc3c[nH]cn3)c(=O)[nH]n12 [Example 110, 4-(butylamino)-2-(4-tert-butylphenyl)-8-(1H-imidazol-4-ylmethyl)-6H,7H-pyrazolo[1,5-a][1,3,5]triazin-7-one] | 4 (≈ 9.53 µM) | 2 (≈ 4.77 µM) |  | 
CCCCN(CCCC)CCCNc1nc(-c2ccc(C(C)(C)C)cc2)nc2cc(=O)[nH]n12 [Example 78, 2-(4-tert-butylphenyl)-4-{[3-(dibutylamino)propyl]amino}-6H,7H-pyrazolo[1,5-a][1,3,5]triazin-7-one] | 32 (≈ 70.7 µM) | 32 (≈ 70.7 µM) |  | 
CC(C)(C)c1ccc(-c2nc(NCCCNC3Cc4ccccc4C3)n3[nH]c(=O)c(Cc4ccccc4)c3n2)cc1 [Example 108, 8-benzyl-2-(4-tert-butylphenyl)-4-({3-[(2,3-dihydro-1H-inden-2-yl)amino]propyl}amino)-6H,7H-pyrazolo[1,5-a][1,3,5]triazin-7-one] | 0.5 (≈ 0.915 µM) | 2 (≈ 3.66 µM) |  | 
CC(C)(C)c1ccc(-c2nc3c(CC45CC6CC(CC(C6)C4)C5)c(=O)[nH]n3c(=S)[nH]2)cc1 [Example 118, 8-(adamantan-1-ylmethyl)-2-(4-tert-butylphenyl)-4-sulfanylidene-3H,4H,6H,7H-pyrazolo[1,5-a][1,3,5]triazin-7-one] | 8 (≈ 17.8 µM) | 0.5 (≈ 1.11 µM) |  | 
CC(C)(C)c1ccc(-c2nc(N3CCN(CCO)CC3)n3[nH]c(=O)cc3n2)cc1 [Example 77, 2-(4-tert-butylphenyl)-4-[4-(2-hydroxyethyl)piperazin-1-yl]-6H,7H-pyrazolo[1,5-a][1,3,5]triazin-7-one] | 64 (≈ 161 µM) | 64 (≈ 161 µM) |  | 
CC(C)(C)c1ccc(-c2nc(NCCCO)n3[nH]c(=O)c(CC45CC6CC(CC(C6)C4)C5)c3n2)cc1 [Example 119, 8-(adamantan-1-ylmethyl)-2-(4-tert-butylphenyl)-4-[(3-hydroxypropyl)amino]-6H,7H-pyrazolo[1,5-a][1,3,5]triazin-7-one] | 16 (≈ 32.7 µM) | 16 (≈ 32.7 µM) |  | 
Cc1ccc(Cc2c(=O)[nH]n3c(NCCCNC4Cc5ccccc5C4)nc(-c4ccc(C(C)(C)C)cc4)nc23)cn1 [Example 116, 2-(4-tert-butylphenyl)-4-({3-[(2,3-dihydro-1H-inden-2-yl)amino]propyl}amino)-8-[(6-methylpyridin-3-yl)methyl]-6H,7H-pyrazolo[1,5-a][1,3,5]triazin-7-one] | 4 (≈ 7.12 µM) | 4 (≈ 7.12 µM) |  | 
CC(C)(C)c1ccc(-c2nc(NCCCNC3Cc4ccccc4C3)n3[nH]c(=O)c(Cc4c[nH]cn4)c3n2)cc1 [Example 109, 2-(4-tert-butylphenyl)-4-({3-[(2,3-dihydro-1H-inden-2-yl)amino]propyl}amino)-8-(1H-imidazol-4-ylmethyl)-6H,7H-pyrazolo[1,5-a][1,3,5]triazin-7-one] | 4 (≈ 7.45 µM) | 1 (≈ 1.86 µM) |  | 
CN(C)CCCNc1nc(-c2ccc(C(C)(C)C)cc2)nc2c(CC34CC5CC(CC(C5)C3)C4)c(=O)[nH]n12 [Example 120, 8-(adamantan-1-ylmethyl)-2-(4-tert-butylphenyl)-4-{[3-(dimethylamino)propyl]amino}-6H,7H-pyrazolo[1,5-a][1,3,5]triazin-7-one] | 1 (≈ 1.94 µM) | 1 (≈ 1.94 µM) |  | 
CC(C)(C)c1ccc(-c2nc(NCc3ccc(C#N)cc3)n3[nH]c(=O)cc3n2)cc1 [Example 84, 4-({[2-(4-tert-butylphenyl)-7-oxo-6H,7H-pyrazolo[1,5-a][1,3,5]triazin-4-yl]amino}methyl)benzonitrile] | 16 (≈ 40.2 µM) | 8 (≈ 20.1 µM) |  | 
CC(C)(C)c1nc(NCCCN2CCc3ccccc3C2)n2[nH]c(=O)cc2n1 [Example 97, 2-tert-butyl-4-{[3-(1,2,3,4-tetrahydroisoquinolin-2-yl)propyl]amino}-6H,7H-pyrazolo[1,5-a][1,3,5]triazin-7-one] | 128 (≈ 336 µM) | 64 (≈ 168 µM) |  | 
O=c1cc2nc(C34CC5CC(CC(C5)C3)C4)nc(NCCCN3CCc4ccccc4C3)n2[nH]1 [Example 102, 2-(adamantan-1-yl)-4-{[3-(1,2,3,4-tetrahydroisoquinolin-2-yl)propyl]amino}-6H,7H-pyrazolo[1,5-a][1,3,5]triazin-7-one] | 64 (≈ 140 µM) | 16 (≈ 34.9 µM) |  | 
CC(C)(C)c1nc(NCCCNC2Cc3ccccc3C2)n2[nH]c(=O)cc2n1 [Example 95, 2-tert-butyl-4-({3-[(2,3-dihydro-1H-inden-2-yl)amino]propyl}amino)-6H,7H-pyrazolo[1,5-a][1,3,5]triazin-7-one] | 16 (≈ 42.1 µM) | 8 (≈ 21 µM) |  | 
CN(C)CCNc1nc(-c2ccc(C(C)(C)C)cc2)nc2cc(=O)[nH]n12 [Example 25, 2-(4-tert-butylphenyl)-4-{[2-(dimethylamino)ethyl]amino}-6H,7H-pyrazolo[1,5-a][1,3,5]triazin-7-one] |  |  | 64 (≈ 181 µM) | 32 (≈ 90.3 µM)
CC(C)(O)CNc1nc(-c2ccc(C(C)(C)C)cc2)nc2cc(=O)[nH]n12 [Example 26, 2-(4-tert-butylphenyl)-4-[(2-hydroxy-2-methylpropyl)amino]-6H,7H-pyrazolo[1,5-a][1,3,5]triazin-7-one] |  |  | 32 (≈ 90 µM) | 32 (≈ 90 µM)
CC(C)(C)c1ccc(-c2nc(NC3CCCCC3)n3[nH]c(=O)cc3n2)cc1 [Example 36, 2-(4-tert-butylphenyl)-4-(cyclohexylamino)-6H,7H-pyrazolo[1,5-a][1,3,5]triazin-7-one] |  |  | 8 (≈ 21.9 µM) | 8 (≈ 21.9 µM)
CC(C)(C)c1ccc(-c2nc(NCCCOc3cnccn3)n3[nH]c(=O)cc3n2)cc1 [Example 50, 2-(4-tert-butylphenyl)-4-{[3-(pyrazin-2-yloxy)propyl]amino}-6H,7H-pyrazolo[1,5-a][1,3,5]triazin-7-one] |  |  | > 32 | > 32
CC(C)(C)c1ccc(-c2nc(NCCCn3ccncc3=O)n3[nH]c(=O)cc3n2)cc1 [Example 51, 1-(3-{[2-(4-tert-butylphenyl)-7-oxo-6H,7H-pyrazolo[1,5-a][1,3,5]triazin-4-yl]amino}propyl)-1,2-dihydropyrazin-2-one] |  |  | > 64 | > 64
CC(C)(C)c1ccc(-c2nc(N3CCC(O)CC3)n3[nH]c(=O)cc3n2)cc1 [Example 20, 2-(4-tert-butylphenyl)-4-(4-hydroxypiperidin-1-yl)-6H,7H-pyrazolo[1,5-a][1,3,5]triazin-7-one] |  |  | 64 (≈ 174 µM) | 128 (≈ 348 µM)
CC(C)(C)c1ccc(-c2nc(NC3CCN(C(=O)c4nnc[nH]4)CC3)n3[nH]c(=O)cc3n2)cc1 [Example 64, 2-(4-tert-butylphenyl)-4-{[11-(4H-1,2,4-triazole-3-carbonyl)piperidin-4-yl]amino}-6H,7H-pyrazolo[1,5-a][1,3,5]triazin-7-one] |  |  | 128 (≈ 277 µM) | > 128
CC(C)(C)c1ccc(-c2nc(NCCCO)n3[nH]c(=O)cc3n2)cc1 [Example 22, 2-(4-tert-butylphenyl)-4-[(3-hydroxypropyl)amino]-6H,7H-pyrazolo[1,5-a][1,3,5]triazin-7-one] |  |  | 8 (≈ 23.4 µM) | 32 (≈ 93.7 µM)
